Measured values taken from patent US20220289753A1, “SHP2 INHIBITORS” (IRBM S.P.A., priority 2019, published 2022).
pIC50: −log10 of the molar value.

Key:
[1] = target: T1, SHP-2 enzyme (Met1-Leu525) (Homo sapiens, UniProt Q06124); assay: SHP2 inhibition enzymatic assay (DiFMUP substrate, IRS1 peptide activation); assay type: biochemical; details: SHP2 wt; activated by 500 nM IRS1 peptide; 75 μM DiFMUP substrate
T1 construct: synthetized by Origene, Met1-Leu525, cat #TP750155; purchased Origene TP750155
T1 sequence (Q06124 1-525): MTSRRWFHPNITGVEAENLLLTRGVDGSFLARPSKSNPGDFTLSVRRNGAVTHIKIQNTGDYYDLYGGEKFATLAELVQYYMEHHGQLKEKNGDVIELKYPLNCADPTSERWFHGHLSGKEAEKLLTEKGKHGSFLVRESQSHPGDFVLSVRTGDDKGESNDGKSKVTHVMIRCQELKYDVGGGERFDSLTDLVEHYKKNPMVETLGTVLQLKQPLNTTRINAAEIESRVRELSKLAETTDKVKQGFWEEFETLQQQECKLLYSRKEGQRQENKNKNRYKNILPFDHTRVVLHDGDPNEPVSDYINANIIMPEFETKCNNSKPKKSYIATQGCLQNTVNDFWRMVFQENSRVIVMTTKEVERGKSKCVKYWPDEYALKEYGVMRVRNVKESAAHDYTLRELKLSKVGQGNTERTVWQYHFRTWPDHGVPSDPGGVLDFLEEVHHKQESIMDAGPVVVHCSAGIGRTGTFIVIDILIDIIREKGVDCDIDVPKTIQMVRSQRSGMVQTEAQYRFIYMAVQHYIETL
In short: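 SHP-2 (Met1-Leu525, 0.5 nM final) preincubated 30 min with compounds and IRS1 activating peptide in HEPES pH 7.2 buffer with NaCl, KCl, EDTA, tween-20, 5 mM DTT. DiFMUP then added for 30 min at room temperature and fluorescence read. IC50 from four-parameter logistic fit of % inhibition.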

[2] = tested on: ERK phosphorylation in KYSE-520 cells; assay: Phospho-ERK cellular assay (Advanced phospho-ERK1/2 (Thr202/Tyr204) TR-FRET kit); assay type: cell-based; details: Homo sapiens, KYSE-520, 2 h, KYSE-520 cells, 2 h at 37° C., TR-FRET; read-out: pERK IC50
In short: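 KYSE-520 cells were treated 2 h at 37° C with serially diluted compounds, then lysed. Phospho-ERK1/2 (Thr202/Tyr204) was detected by TR-FRET after overnight antibody incubation at room temperature. IC50 came from a four-parameter logistic fit; lower signal reflects greater SHP2 inhibition.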

Row | SMILES | pIC50 [1] | pIC50 [2]
1 | N[C@@H]1c2ccccc2CC12CCN(c1nc3nc(Sc4cccnc4N4CCCC4)cnc3[nH]1)CC2 [Example 225, (S)-1′-(5-((2-(pyrrolidin-1-yl)pyridin-3-yl)thio)-1H-imidazo[4,5-b]pyrazin-2-yl)-1,3-dihydrospiro[indene-2,4′-piperidin]-1-amine] | > 6.30 | < 5.30
2 | CN1C(=O)COc2c(Sc3cnc4nc(N5CCC6(CC5)Cc5ccccc5[C@H]6N)[nH]c4n3)cccc21 [Example 173, (S)-8-((2-(1-amino-1,3-dihydrospiro[indene-2,4′-piperidin]-1′-yl)-1H-imidazo[4,5-b]pyrazin-6-yl)thio)-4-methyl-2H-benzo[b][1,4]oxazin-3(4H)-one] | > 6.30 | 5.30 to 6.00
3 | COc1cnccc1Sc1cnc2nc(N3CCC4(CC3)Cc3ccccc3[C@H]4N)[nH]c2n1 [Example 177, (S)-1′-(6-((3-methoxypyridin-4-yl)thio)-1H-imidazo[4,5-b]pyrazin-2-yl)-1,3-dihydrospiro[indene-2,4′-piperidin]-1-amine] | > 6.30 | > 6.00
4 | N[C@@H]1c2ccccc2CC12CCN(c1cc3nc(Sc4cccc(Cl)c4Cl)cnc3[nH]1)CC2 [Example 243, (S)-1′-(2-((2,3-dichlorophenyl)thio)-5H-pyrrolo[2,3-b]pyrazin-6-yl)-1,3-dihydrospiro[indene-2,4′-piperidin]-1-amine] | > 6.30 | > 6.00
5 | N[C@@H]1c2ccccc2CC12CCN(c1nc3nc(N4CCCc5ncccc54)cnc3[nH]1)CC2 [Example 249, (S)-1′-(5-(3,4-dihydro-1,5-naphthyridin-1(2H)-yl)-1H-imidazo[4,5-b]pyrazin-2-yl)-1,3-dihydrospiro[indene-2,4′-piperidin]-1-amine] | > 6.30 | > 6.00
6 | N[C@@H]1c2cccnc2CC12CCN(c1nc3ncc(Sc4cccc(Cl)c4Cl)nc3[nH]1)CC2 [Example 172, (S)-1′-(5-((2,3-dichlorophenyl)thio)-1H-imidazo[4,5-b]pyrazin-2-yl)-5,7-dihydrospiro[cyclopenta[b]pyridine-6,4′-piperidin]-5-amine] | > 6.30 | > 6.00
7 | CC1(N)CCN(c2nc3nc(Sc4ccccc4C(F)(F)F)cnc3[nH]2)CC1 [Example 18, 4-methyl-1-(5-((2-(trifluoromethyl)phenyl)thio)-1H-imidazo[4,5-b]pyrazin-2-yl)piperidin-4-amine] | > 6.30 | 5.30 to 6.00
8 | N[C@@H]1CCCC12CCN(c1nc3ncc(Sc4cccc(Cl)c4Cl)nc3[nH]1)CC2 [Example 3, (R)-8-(6-((2,3-dichlorophenyl)thio)-1H-imidazo[4,5-b]pyrazin-2-yl)-8-azaspiro[4.5]decan-1-amine] | > 6.30 | 5.30 to 6.00
9 | N[C@@H]1c2ccccc2CC12CCN(c1nc3nc(Sc4ccnc5cccc(F)c45)cnc3[nH]1)CC2 [Example 218, (S)-1′-(5-((5-fluoroquinolin-4-yl)thio)-1H-imidazo[4,5-b]pyrazin-2-yl)-1,3-dihydrospiro[indene-2,4′-piperidin]-1-amine] | > 6.30 | > 6.00
10 | Nc1nccc(Sc2cnc3[nH]c(N4CCC5(CC4)Cc4ccc(CO)cc4[C@H]5N)nc3n2)c1Cl [Example 244, (S)-(1-amino-1′-(5-((2-amino-3-chloropyridin-4-yl)thio)-1H-imidazo[4,5-b]pyrazin-2-yl)-1,3-dihydrospiro[indene-2,4′-piperidin]-6-yl)methanol] | > 6.30 | > 6.00
11 | CNc1nccc(Sc2cnc3[nH]c(N4CCC5(CC4)Cc4ccccc4[C@H]5N)nc3n2)c1C#N [Example 201, (S)-4-((2-(1-amino-1,3-dihydrospiro[indene-2,4′-piperidin]-1′-yl)-1H-imidazo[4,5-b]pyrazin-5-yl)thio)-2-(methylamino)nicotinonitrile] | > 6.30 | > 6.00

Next, values leading:

Row | pIC50 [1] | pIC50 [2] | SMILES
12 | > 6.30 | > 6.00 | Cn1cc2c(n1)CC1(CCN(c3nc4nc(Sc5ccnc(N)c5Cl)cnc4[nH]3)CC1)C2N (stereo not drawn) [Example 233, 1′-(5-((2-amino-3-chloropyridin-4-yl)thio)-1H-imidazo[4,5-b]pyrazin-2-yl)-2-methyl-2,6-dihydro-4H-spiro[cyclopenta[c]pyrazole-5,4′-piperidin]-4-amine]
13 | > 6.30 | > 6.00 | Nc1nccc(Sc2cnc3[nH]c(N4CCC5(CC4)Cc4ccc(C6CC6)cc4[C@H]5N)nc3n2)c1Cl [Example 257, (S)-1′-(5-((2-amino-3-chloropyridin-4-yl)thio)-1H-imidazo[4,5-b]pyrazin-2-yl)-6-cyclopropyl-1,3-dihydrospiro[indene-2,4′-piperidin]-1-amine]
14 | > 6.30 | > 6.00 | Nc1nccc(Sc2cnc3[nH]c(N4CCC5(CC4)Cc4ccccc4[C@H]5N)nc3n2)c1Cl [Example 132, (S)-1′-(5-((2-amino-3-chloropyridin-4-yl)thio)-1H-imidazo[4,5-b]pyrazin-2-yl)-1,3-dihydrospiro[indene-2,4′-piperidin]-1-amine]
15 | > 6.30 | > 6.00 | N#Cc1ncccc1Sc1cnc2[nH]c(N3CCC4(CC3)Cc3ccccc3[C@H]4N)nc2n1 [Example 217, (S)-3-((2-(1-amino-1,3-dihydrospiro[indene-2,4′-piperidin]-1′-yl)-1H-imidazo[4,5-b]pyrazin-5-yl)thio)picolinonitrile]
16 | > 6.30 | > 6.00 | Nc1nccc(Sc2cnc3[nH]c(N4CCC5(CC4)Cc4cc(F)c(F)cc4[C@H]5N)nc3n2)c1Cl [Example 188, (S)-1′-(5-((2-amino-3-chloropyridin-4-yl)thio)-1H-imidazo[4,5-b]pyrazin-2-yl)-5,6-difluoro-1,3-dihydrospiro[indene-2,4′-piperidin]-1-amine]
17 | > 6.30 | > 6.00 | N[C@@H]1c2cccnc2CC12CCN(c1nc3nc(Sc4cccnc4C(F)(F)F)cnc3[nH]1)CC2 [Example 139, (S)-1′-(5-((2-(trifluoromethyl)pyridin-3-yl)thio)-1H-imidazo[4,5-b]pyrazin-2-yl)-5,7-dihydrospiro[cyclopenta[b]pyridine-6,4′-piperidin]-5-amine]
18 | > 6.30 | 5.30 to 6.00 | N[C@@H]1c2ccccc2CC12CCN(c1nc3ncc(Sc4cccc5[nH]c(=O)oc45)nc3[nH]1)CC2 [Example 178, (S)-7-((2-(1-amino-1,3-dihydrospiro[indene-2,4′-piperidin]-1′-yl)-1H-imidazo[4,5-b]pyrazin-6-yl)thio)benzo[d]oxazol-2(3H)-one]
19 | 5.52 to 6.30 | 5.30 to 6.00 | N[C@@H]1c2ccccc2CC12CCN(c1nc3nc(Sc4cnc5ccccn5c4=O)cnc3[nH]1)CC2 [Example 221, (S)-3-((2-(1-amino-1,3-dihydrospiro[indene-2,4′-piperidin]-1′-yl)-1H-imidazo[4,5-b]pyrazin-5-yl)thio)-4H-pyrido[1,2-a]pyrimidin-4-one]
20 | > 6.30 | < 5.30 | Cc1nc(COc2cnccc2Sc2cnc3[nH]c(N4CCC5(CC4)Cc4ccccc4[C@H]5N)nc3n2)co1 [Example 227, (S)-1′-(5-((3-((2-methyloxazol-4-yl)methoxy)pyridin-4-yl)thio)-1H-imidazo[4,5-b]pyrazin-2-yl)-1,3-dihydrospiro[indene-2,4′-piperidin]-1-amine]
21 | > 6.30 | < 5.30 | N[C@@H]1c2ncccc2OC12CCN(c1nc3nc(Sc4ccncc4Cl)cnc3[nH]1)CC2 [Example 163, (R)-1′-(5-((3-chloropyridin-4-yl)thio)-1H-imidazo[4,5-b]pyrazin-2-yl)-3H-spiro[furo[3,2-b]pyridine-2,4′-piperidin]-3-amine]
22 | > 6.30 | < 5.30 | Cc1nc2nc(N3CCC(C)(N)CC3)[nH]c2nc1Sc1cccc(Cl)c1Cl [Example 133, 1-(5-((2,3-dichlorophenyl)thio)-6-methyl-1H-imidazo[4,5-b]pyrazin-2-yl)-4-methylpiperidin-4-amine]
23 | > 6.30 | 5.30 to 6.00 | N[C@@H]1c2ccccc2CC12CCN(c1nc3nc(Sc4ccc5cc[nH]c5c4)cnc3[nH]1)CC2 [Example 193, (S)-1′-(5-((1H-indol-6-yl)thio)-1H-imidazo[4,5-b]pyrazin-2-yl)-1,3-dihydrospiro[indene-2,4′-piperidin]-1-amine]
24 | > 6.30 | > 6.00 | N[C@@H]1c2ccccc2CC12CCN(c1nc3nc(Sc4cccc(Cl)c4Cl)c(Cl)nc3[nH]1)CC2 [Example 259, (S)-1′-(6-chloro-5-((2,3-dichlorophenyl)thio)-1H-imidazo[4,5-b]pyrazin-2-yl)-1,3-dihydrospiro[indene-2,4′-piperidin]-1-amine]
